Article PMC5698418 (Nature Communications, 2017)

Experiments:
Arc mRNA = Arc mRNA by real-time RT-PCR in primary cortical neurons; type: cell-based, mouse; conditions: 6 h BDNF plus U0126 10 µM or NSC23766 200 µM
Procedure: After experimental treatment, total RNA was isolated from primary cortical neuron cultures using the TRIzol method (Invitrogen). The concentration of total RNA was measured using a NanoDrop 1000 spectrophotometer (Thermo Fisher Scientific, Rockford, IL) and first-strand complementary DNA (cDNA) was synthesized using the iScript cDNA Synthesis Kit (Bio-Rad, Hercules, CA). Real-time PCRs were performed using gene-specific primers and monitored by quantification of SYBR Green I fluorescence using a Bio-Rad CFX96 Real-Time Detection System. Expression was normalized against Gapdh expression. The relative quantification from at least three biological replicates was performed using the comparative cycle threshold (∆∆CT) method.
Primers for real-time reverse transcription PCR experiments were: Arc, 5′-[…]-3′ (forward) and 5′-[…]-3′ (reverse); Map2, 5′-[…]-3′ (forward) and 5′-[…]-3′ (reverse); GluA1, 5′-[…]-3′ (forward) and 5′-[…]-3′ (reverse); GluA2, 5′-[…]-3′ (forward) and 5′-[…]-3′ (reverse); Gapdh, 5′-[…]-3′ (forward) and 5′-[…]-3′ (reverse).

[1] = system: Arc puncta in dendrites of primary cortical neurons; experiment: Arc puncta along Map2-labeled dendrites (immunocytochemistry); type: cell-based, mouse; conditions: 16.7 µM with BDNF, vs untreated and BDNF alone; for BDNF: BDNF alone vs untreated
From the text: Chemical structure of each compound is presented on top. b Graphs show mean (n = 5) Arc/β-actin ratio (±SEM) for cells treated as in a. […] Tukey’s HSD post hoc test, *p < 0.05; **p < 0.01, ***p < 0.005; ****p < 0.0001. […] Representative captures of DIV14 mouse primary cortical neurons from each experimental condition co-immunostained for Arc (red fluorophore) and Map2 (green fluorophore). White arrowheads show examples of discrete Arc puncta. […] Tukey’s HSD post hoc test, *p < 0.05; ***p < 0.005; ****p < 0.0001
(§1) Indirect immunofluorescence detection of antigens was carried out using cortical neurons cultured on poly-L-lysine/laminin-coated coverslips in 24-well plates at a density of 0.1 × 10^7 per well. After experimental treatment, cells were washed twice with PBS and fixed for 30 min at room temperature with 4% paraformaldehyde in PBS. After fixation, cells were washed twice with PBS, permeabilized with PBST (PBS + 0.25% Triton X-100) for 20 min, blocked in blocking solution (PBS + 5% normal goat serum) for another 30 min, and finally incubated overnight at 4 °C with the first primary antibody in blocking solution. The next day, coverslips were extensively washed with PBS and incubated for 2 h at room temperature in the appropriate fluorophore-conjugated secondary antibody solution (Alexa 488- or Alexa 594-conjugated secondary antibody (Molecular Probes, Invitrogen) in blocking solution). After washing with PBS, the coverslips were incubated again overnight in primary antibody solution for the second antigen, and the procedure for conjugation of the fluorophore-conjugated secondary antibody was repeated as above. Finally, cell nuclei were counterstained with 4′,6-diamidino-2-phenylindole (DAPI), and coverslips were mounted on glass slides with ProLong Antifade reagent (Invitrogen).
(§2) Quantification of surface GluA1 puncta was performed according to the following strategy. First, overlapping digital images of GluA1 and Map2 immunostainings were collected using a Zeiss AxioObserver Z1 inverted microscope and ×63 oil immersion objective. Second, thresholding and segmentation based on the Map2 images was used to remove GluA1 signals outside of dendritic processes. Importantly, the same background/foreground cutoff threshold was used for images of all experimental conditions. Third, the length of dendrites for each image set was measured and recorded. Finally, distinct GluA1 foreground objects along dendrites >5 pixels were counted using the particle analysis tool in ImageJ and presented as the average number of GluA1 puncta per µm of dendrite length for each experimental condition.

surface GluA1 = experiment: Surface AMPAR (GluA1) imaging along dendrites; type: cell-based, mouse; conditions: 16.7 µM, 6 h with BDNF, vs untreated and BDNF alone; for BDNF: BDNF alone vs baseline
Procedure: Our procedure to label surface AMPARs containing the GluA1 subunit was adapted from two reports[14],[61]. Precisely, DIV14 primary cortical neurons cultured on coverslips were rinsed once with room temperature PBS^MC (PBS containing 0.5 mM CaCl2, 1 mM MgCl2, and 4% sucrose). Live cells were then incubated for 30 min at room temperature with GluA1 primary antibody solution (PBS^MC with antibody against the extracellular N-terminus of GluA1 (EMD Millipore Corp, clone RH95, 5.0 µg ml^−1)). Next, cells were rinsed twice with ice-cold PBS^MC followed by fixation with 4% paraformaldehyde + 4% sucrose solution for 15 min at room temperature. After fixation, neurons were washed with regular PBS and then incubated overnight with Map2 primary antibody solution (PBS with 0.125% Triton X-100, 5% normal goat serum, and anti-Map2 antibody) to label dendrites. Next day, coverslips were washed with PBS, incubated with appropriate secondary antibodies for 1 h at room temperature, and finally mounted on glass slides with ProLong Antifade reagent (Invitrogen).
as §2

HDAC3 = molecular target: T1, HDAC3 (Homo sapiens, UniProt O15379); experiment: Biochemical HDAC assay (BPS Bioscience), HDAC3; conditions: 25 µM
T1 construct: purchased BPS Bioscience (San Diego, CA), contract assay service

[2] = system: BDNF-induced nuclear Arc expression in primary cortical neurons; experiment: Chemogenomic screen: high-content image-based assay of BDNF-induced nuclear Arc expression (96-well); type: cell-based, mouse
Outline: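 DIV13 mouse primary cortical neurons (30,000 cells/well) are treated with compound at 16.7 µM and BDNF, in three biological replicates. Arc and acetyl-H3K9 are immunostained and imaged at ×40, and nuclear Arc signal is quantified automatically using acetyl-H3K9 as the nuclear mask.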

acetyl-H3K9 = experiment: Acetyl-H3K9 immunofluorescence in neuronal nuclei (multiplexed in screen); type: cell-based, mouse
Procedure: To increase the throughput of our pharmacological screening for modulators of Arc, the above mentioned assay was adapted to cultures of mouse primary cortical neurons in 96-well plates.
Screening of compounds in the chemogenomic library was carried out using DIV13 primary forebrain cortical neurons cultured on poly-L-lysine/laminin-coated 96-well plates (Ibidi USA, Madison, WI). Cells were seeded at a density of 30,000 cells per well and treated with the compound library and BDNF according to the experimental design presented in Fig. 3a. After experimental treatment, cells were processed for Arc and acetyl-H3K9 immunocytochemistry according to the protocol described above. Both antigens (Arc and acetyl-H3K9) were imaged using an IN Cell Analyzer 6000 imaging system and a ×40 objective. […] High-throughput quantification of nuclear Arc immunofluorescence signal was performed in a similar fashion than the low-throughput procedure described above but with the exception that acetyl-H3K9 was used as a nuclear mask to guide the automated quantification of nuclear Arc immunofluorescence signal.

HDAC2 = molecular target: T2, HDAC2 (Homo sapiens, UniProt Q92769); experiment: Biochemical HDAC assay (BPS Bioscience), HDAC2; conditions: 25 µM
T2 construct: purchased BPS Bioscience (San Diego, CA), contract assay service

HDAC1 = molecular target: T3, HDAC1 (Homo sapiens, UniProt Q13547); experiment: Biochemical HDAC assay (BPS Bioscience), HDAC1; conditions: 25 µM
T3 construct: purchased BPS Bioscience (San Diego, CA), contract assay service

[3] = system: nuclear Arc in primary cortical neurons; experiment: Low-throughput nuclear Arc immunofluorescence assay (coverslips, Map2-positive cells); type: cell-based, mouse
From the text: Next, using fluorescent immunocytochemistry we assessed to what extent the observed induction of total Arc protein expression measured by western blotting corresponded to an accumulation of Arc in the nucleus of our cultured neurons. We chose to focus on nuclear Arc at this point based on the assumption that it would provide a robust and easily tractable phenotype for testing a large set of compounds with the help of a quantitative, single-cell level, high-content, image-based screen. […] On the other hand, many but not all of the neurons in cultures that were treated with BDNF for 6 h had high levels of Arc in their nuclei (Fig. 2b). […] Finally, to further evaluate the sensitivity of our method to quantify nuclear Arc expression, we tested four pharmacological inhibitors predicted to prevent BDNF-induced Arc expression. […] These experimental results with known mechanism of action compounds critically guided the design and interpretation of the chemogenomic screen performed next.
as §1
Cells cultured on coverslips from three independent biological replicates were imaged with an IN Cell Analyzer 6000 high-performance laser-based confocal imaging system and a ×40 objective (GE Healthcare Life Sciences, Marlborough, MA). Image preparation, assembly, and analysis were performed with ImageJ (NIH) and Photoshop CS. Change in contrast and evenness of the illumination was applied equally to all images presented in the study. The following procedure was used for low-throughput measurements. First, original raw tiff files were opened in ImageJ, the nucleus of all neurons in the image was located based on Map2 immunostaining, then average pixel intensity corresponding to Arc immunofluorescence was measured for a 30-pixel spot positioned at the center of the nuclear compartment. Second, for each measure of Arc nuclear immunofluorescence pixel intensity, a measure of background pixel intensity from the same image channel was acquired and subsequently subtracted from the Arc nuclear immunofluorescence pixel intensity value. Finally, Arc immunofluorescence signal from untreated samples was used to establish an objective threshold (two standard deviations above the nuclear Arc immunofluorescence signal averaged from a representative population of untreated neurons) and allow comparison of nuclear Arc expression between different experimental conditions.

Arc protein = experiment: Western blot of total Arc protein in primary cortical neurons; type: cell-based, mouse; conditions: 6 h; BDNF 100 ng ml−1 or 4AP 40 µM + Bic 50 µM
Procedure: Forebrains of E16.5 C57BL/6 mouse embryos were dissected and then dissociated in trypsin solution for 15 min followed by three washes with phosphate-buffered saline (PBS). Single-cell suspension was achieved by gentle pipet trituration. Neurons were seeded in poly-L-lysine/laminin-coated six-well plates at a density of 2 × 10^6 per well and maintained in neurobasal medium containing B27 supplement (2%, Invitrogen, Grand Island, NY), penicillin (50 units ml^−1, Invitrogen), streptomycin (50 µg ml^−1, Invitrogen), and glutamine (1 mM, Sigma). For experiments involving BDNF (EMD Millipore Corps, Billerica, MA), the stock solution (2 ng µl^−1 in water) was added directly to the culture medium at a final concentration of 100 ng ml^−1 for the indicated period of time.
For western blot analyses, cells were collected by scraping in ice-cold radioimmunoprecipitation assay (RIPA) buffer (50 mM Tris-HCl (pH 8.0), 300 mM NaCl, 0.5% Igepal-630, 0.5% deoxycholic acid, 0.1% SDS, 1 mM EDTA) supplemented with a cocktail of protease inhibitors (Complete Protease Inhibitor without EDTA, Roche Applied Science, Indianapolis, IN) and phosphatase inhibitors (phosphatase inhibitor cocktail A, Santa Cruz Biotechnology). One volume of 2× Laemmli buffer (100 mM Tris-HCl (pH 6.8), 4% SDS, 0.15% bromophenol blue, 20% glycerol, 200 mM β-mercaptoethanol) was added and the extracts were boiled for 5 min. Samples were adjusted to an equal concentration after protein concentrations were determined using the BCA assay (Pierce, Thermo Fisher Scientific). Lysates were separated using SDS–PAGE and transferred to a nitrocellulose membrane. After transfer, the membrane was blocked in TBST (Tris-buffered saline + 0.1% Tween 20) supplemented with 5% nonfat powdered milk and probed with the indicated primary antibody at 4 °C overnight. After washing with TBST, the membrane was incubated with the appropriate secondary antibody and visualized using enhanced chemiluminescence (ECL) reagents according to the manufacturer’s guidelines (Pierce, Thermo Fisher Scientific).
The following procedure was used to quantify western blots. First, equal quantity of protein lysate was analyzed by SDS–PAGE for each biological replicate. Second, the exposure time of the film to the ECL chemiluminescence was the same for each biological replicate. Third, all the exposed films were scanned on a Brother MFC-J485DW scanner in grayscale at a resolution of 300 dpi. Fourth, the look-up table (LUT) of the scanned tiff images was inverted and the intensity of each band was individually measured using the selection tool and the histogram function in Adobe Photoshop CC 2015 software. […]

T3 sequence (Q13547 whole entry): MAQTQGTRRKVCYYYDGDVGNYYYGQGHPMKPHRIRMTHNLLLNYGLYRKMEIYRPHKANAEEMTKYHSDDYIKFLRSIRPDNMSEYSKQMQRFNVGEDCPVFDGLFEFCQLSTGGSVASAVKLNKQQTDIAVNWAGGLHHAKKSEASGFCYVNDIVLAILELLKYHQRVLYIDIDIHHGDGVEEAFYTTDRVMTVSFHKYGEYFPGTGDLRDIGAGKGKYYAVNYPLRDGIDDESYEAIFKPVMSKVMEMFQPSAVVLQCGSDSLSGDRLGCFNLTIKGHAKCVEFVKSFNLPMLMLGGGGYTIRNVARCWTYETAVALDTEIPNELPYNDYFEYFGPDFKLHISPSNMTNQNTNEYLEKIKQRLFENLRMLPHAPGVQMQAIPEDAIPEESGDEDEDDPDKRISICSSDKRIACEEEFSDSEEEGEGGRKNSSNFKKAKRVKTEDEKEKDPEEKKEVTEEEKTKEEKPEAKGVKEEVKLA
T2 sequence (Q92769 whole entry): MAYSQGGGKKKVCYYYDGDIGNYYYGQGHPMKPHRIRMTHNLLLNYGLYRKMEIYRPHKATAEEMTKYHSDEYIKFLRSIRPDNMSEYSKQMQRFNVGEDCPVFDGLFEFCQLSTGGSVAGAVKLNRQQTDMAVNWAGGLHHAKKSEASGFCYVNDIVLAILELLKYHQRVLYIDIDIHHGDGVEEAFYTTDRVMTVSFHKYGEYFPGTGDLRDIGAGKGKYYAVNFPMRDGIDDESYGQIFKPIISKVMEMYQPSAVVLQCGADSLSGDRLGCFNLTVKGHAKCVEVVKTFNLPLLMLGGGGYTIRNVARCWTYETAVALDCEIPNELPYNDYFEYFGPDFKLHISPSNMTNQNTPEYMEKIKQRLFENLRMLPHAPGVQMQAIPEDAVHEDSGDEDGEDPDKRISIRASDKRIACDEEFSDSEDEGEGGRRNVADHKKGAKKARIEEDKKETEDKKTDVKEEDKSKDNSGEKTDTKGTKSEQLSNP
T1 sequence (O15379 whole entry): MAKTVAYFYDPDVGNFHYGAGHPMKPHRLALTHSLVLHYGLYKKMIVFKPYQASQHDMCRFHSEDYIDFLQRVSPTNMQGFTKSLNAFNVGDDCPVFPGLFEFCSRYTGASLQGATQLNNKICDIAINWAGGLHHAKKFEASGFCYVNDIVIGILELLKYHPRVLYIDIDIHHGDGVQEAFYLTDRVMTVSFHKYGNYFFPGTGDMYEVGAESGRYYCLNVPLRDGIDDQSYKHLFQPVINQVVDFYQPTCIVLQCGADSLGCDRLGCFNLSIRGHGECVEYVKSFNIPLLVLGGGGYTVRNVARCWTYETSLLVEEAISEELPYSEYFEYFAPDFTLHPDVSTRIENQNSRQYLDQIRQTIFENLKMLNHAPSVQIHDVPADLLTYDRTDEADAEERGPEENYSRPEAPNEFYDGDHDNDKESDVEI
T1 sequence (Q9Y618 395-489 partner limits assumed): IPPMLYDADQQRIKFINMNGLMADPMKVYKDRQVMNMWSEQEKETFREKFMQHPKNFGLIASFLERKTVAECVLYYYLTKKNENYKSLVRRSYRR

With `CCN(CC)CCCC(C)Nc1nc(C)cc(Nc2ccc3nc(C)cc(N)c3c2)n1` (centres unmarked) [NSC23766] the “effect on BDNF-induced Arc mRNA expression (RT-qPCR)” value (Arc mRNA) was “prevented BDNF-induced Arc expression but not Rac1 inhibition by NSC23766”.

With `CC(=O)Nc1ccc(C(=O)Nc2ccccc2N)cc1` [CI-994] the “number of Arc puncta in dendritic projections” value [1] was “significantly greater number of Arc puncta”, the “surface GluA1 puncta per dendrite µm” value (surface GluA1) was “significant decrease in surface GluA1 levels” and the “inhibitory activity toward HDAC3” value (HDAC3) was “potent inhibition”. The “occurrence of neuronal nuclei with above threshold nuclear Arc immunofluorescence signal, factor in relation to control (DMSO plus BDNF)” value ([2]; 16.7 µM, BDNF) was at least 1.5, the “Percentage of cell with nuclear Arc immunostaining above 2σ threshold” value ([2]; chemogenomic (SMART) screen, BDNF-induced nuclear Arc expression, primary cortical neurons, BDNF control 19.5) was 29.1% and the “impact on acetyl-H3K9 immunofluorescence (Z-score)” value (acetyl-H3K9; screen, 16.7 µM) was “strong impact”. For the same molecule, the “inhibitory activity toward HDAC2” value (HDAC2) was “potent inhibition” and the “inhibitory activity toward HDAC1” value (HDAC1) was “potent inhibition”.

For `N#CC(=C(/N)Sc1ccccc1N)/C(C#N)=C(/N)Sc1ccccc1N` [U0126], the “effect on BDNF-induced Arc mRNA expression (RT-qPCR)” value (Arc mRNA) was “prevented BDNF-induced Arc expression” and the “effect on BDNF-induced increase of nuclear Arc” value ([3]; co-treated with BDNF 6 h, k252a 100 nM, ActD 2 ng ml−1, CHX 50 µg ml−1, U0126 10 µM) was “effectively prevented the increase of nuclear Arc”.

B1: BDNF: recombinant brain-derived neurotrophic factor, 100 ng ml−1 (protein, UniProt P23560 19-247, looked up)
Neurotrophic factor BDNF …: APMKEANIRGQGGLAYPGVRTHGTLESVNGPKAGSRGLTSLADTFEHVIEELLDEDQKVRPNEENNKDADLYTSRVMLSSQVPLEPPLLFLLEEYKNYLDAANMSMRVRRHSDPARRGELSVCDSISEWVTAADKKTAVDMSGGTVTVLEKVPVSKGQLKQYFYETKCNPMGYTKEGCRGIDKRHWNSQCRTTQSYVRALTMDSKKRIGWRFIRIDTSCVCTLTIKRGR
With B1 the “number of Arc puncta in dendritic projections” value [1] was “did not observe a significant difference”, the “surface GluA1 puncta per dendrite µm” value (surface GluA1) was “did not influence, in one way or the other, the number of GluA1 puncta” and the “Arc protein abundance vs untreated control (western blot)” value (Arc protein) was “significantly more Arc protein”. For the same molecule, the “acetyl-H3K9 immunofluorescence intensity levels in primary cortical neurons” value (acetyl-H3K9; BDNF 6 h) was “unaffected”, the “neurons with Arc-specific nuclear average pixel intensity above threshold (> 2σ of untreated)” value ([3]; BDNF 100 ng ml−1, 6 h, n = 331 neurons) was 17.5% and the “neuronal nuclei with above threshold average nuclear Arc signal (> 2σ)” value ([3]; BDNF 24 h, n = 334) was 4.2%.
